Test results from US20210346385A1, “TASTE-MASKED DOSAGE FORMS” (MSB Holdings, Inc, priority 2018, published 2021).

Test: Dissolving time of the troche
Format: physicochemical
[1] = ingredient in troche of Example 4f
[2] = ingredient in troche of Example 4i
[3] = ingredient in troche of Example 4j
[4] = ingredient in troche of Example 4k
[5] = ingredient in troche of Example 4l
[6] = ingredient in troche of Example 4m
[7] = ingredient in troche of Example 4n
[8] = ingredient in troche of Example 4o (ButterCream)
[9] = ingredient in troche of Example 4o (Vanilla, Marshmallow)
[10] = ingredient in troche of Example 4p
[11] = ingredient in troche of Example 4c, troche with silica, acacia and Winterfresh
[12] = ingredient in troche of Example 42
[13] = ingredient in troche of Example 4h
[14] = ingredient in troche of Example 4d, troche with Alpha agent, silica, acacia, cherry

| Dissolving time: remark for the single ingredient [1] | Dissolving time: remark for the single ingredient [2] | Dissolving time: remark for the single ingredient [3] | Dissolving time: remark for the single ingredient [4] | Dissolving time: remark for the single ingredient [5] | Dissolving time: remark for the single ingredient [6] | Dissolving time: remark for the single ingredient [7] | Dissolving time: remark for the single ingredient [8] | Dissolving time: remark for the single ingredient [9] | Dissolving time: remark for the single ingredient [10] | Dissolving time: remark for the single ingredient [11] | Dissolving time: remark for the single ingredient (ingredient in troche of Example 4e) | Dissolving time: remark for the single ingredient [12] | Dissolving time: remark for the single ingredient [13] | Dissolving time: remark for the single ingredient [14] | Dissolving time: remark for the single ingredient (ingredient in troche of Example 4b) | Compound |
| --- | --- | --- | --- | --- | --- | --- | --- | --- | --- | --- | --- | --- | --- | --- | --- | --- |
| No effect | No effect | No effect | No effect | No effect | No effect | No effect | No effect | No effect | No effect | – | – | – | – | – | – | CC1=CC(=O)NS(=O)(=O)O1 [Acesulfame] |
| No effect | No effect | No effect | No effect | No effect | No effect | No effect | No effect | No effect | No effect | No effect | No effect | No effect | No effect | No effect | – | CCCc1nn(C)c2c(=O)[nH]c(-c3cc(S(=O)(=O)N4CCN(C)CC4)ccc3OCC)nc12 [Sildenafil, reference compound] |
| – | – | No effect | No effect | No effect | No effect | No effect | No effect | No effect | No effect | – | – | No effect | No effect | – | – | C=C1C[C@@]23CC[C@H]4[C@@](C)(CCC[C@@]4(C)C(=O)O)[C@@H]2CC[C@]1(O)C3 [Steviol] |
| – | – | – | – | – | – | – | – | – | – | Did Not Help | – | – | – | No effect | Did Not Help | Sugar |
